In brackets after ≈: the same amount, converted by molar mass. Where two headings read alike, the source gives them in different places.
Experiments:
[1] = system: Cryptococcus neoformans (CECT1078); test: Antifungal activity, Cryptococcus neoformans; format: cell-based
Procedure: (§1) Three yeast strains (Candida albicans (ATCC 10231), Candida krusei (ATCC 6258), and Cryptococcus neoformans (CECT1078)) and filamentous fungi (one Aspergillus fumigatus (ATCC 204305) and three dermatophytes (Trichophyton rubrum (FF5), Nannizzia gypsea (formerly Microsporum gypseum-FF3) and Epidermophyton floccosum (FF9)) were used in this work. Sub-cultures were prepared in Sabouraud Dextrose Agar medium (SDA) from 1–2 days (yeasts and Aspergillus) to 5–7 days (dermatophytes) to ensure optimal growth conditions and purity.
(§2) Fungal organisms were cultured in SDA and then suspended in RPMI-1640 broth. Serial dilutions of the onion skin extract solutions, prepared from a stock solution (8 mg/mL in DMSO), were prepared in RPMI-1640 broth, starting at a concentration of 4 mg/mL. Sample dilutions and cell suspensions were distributed into 96 well plates and incubated under aerobic, humid conditions at 26 °C for dermatophytes and 36 °C for the other organisms. Incubation times were 5 to 7 days for dermatophytes, 72 h for C. neoformans, and 48 h for the remaining organisms. […] In cases where MIC was determined, 20 μL from wells without visible growth were cultured on SDA plates, incubating under the same conditions previously described for each organism. The Minimal Fungicidal Concentration (MFC) was then determined as the lowest concentration where complete no growth was observed on the SDA plates. All the experiments were conducted in triplicate.

[2] = Nitric oxide radical scavenging activity; format: biochemical
Procedure: The capacity of the onion skin extracts to scavenge the nitric oxide (^●NO) radical was assessed using the method described by [Ferreres et al. (2021)]. This involved mixing 100 μL of the extract solutions, diluted in 0.1 M phosphate buffer (pH 7.4), with the same volume of 20 mM sodium nitroprusside dihydrate. After a 60 min incubation under light, the Griess reagent (100 μL) was added, followed by 10 min incubation in the dark, and absorbance was measured at 560 nm. Quercetin was used as positive control. At least five different concentrations were tested for each onion skin extract, with a minimum of three independent experiments conducted in triplicate. A control was prepared replacing sample with buffer, and a blank with phosphoric acid instead of the Griess reagent.

[3] = set-up: method as in Li et al., 2011; details: ref Li et al., 2011; cited from earlier work
acetylcholinesterase = target: T1, acetylcholinesterase (Electrophorus electricus, UniProt O42275); test: Acetylcholinesterase (AChE) inhibition assay; format: biochemical
T1 construct: purchased Sigma-Aldrich (St. Louis, MO, USA)
T1 sequence (O42275 24-633): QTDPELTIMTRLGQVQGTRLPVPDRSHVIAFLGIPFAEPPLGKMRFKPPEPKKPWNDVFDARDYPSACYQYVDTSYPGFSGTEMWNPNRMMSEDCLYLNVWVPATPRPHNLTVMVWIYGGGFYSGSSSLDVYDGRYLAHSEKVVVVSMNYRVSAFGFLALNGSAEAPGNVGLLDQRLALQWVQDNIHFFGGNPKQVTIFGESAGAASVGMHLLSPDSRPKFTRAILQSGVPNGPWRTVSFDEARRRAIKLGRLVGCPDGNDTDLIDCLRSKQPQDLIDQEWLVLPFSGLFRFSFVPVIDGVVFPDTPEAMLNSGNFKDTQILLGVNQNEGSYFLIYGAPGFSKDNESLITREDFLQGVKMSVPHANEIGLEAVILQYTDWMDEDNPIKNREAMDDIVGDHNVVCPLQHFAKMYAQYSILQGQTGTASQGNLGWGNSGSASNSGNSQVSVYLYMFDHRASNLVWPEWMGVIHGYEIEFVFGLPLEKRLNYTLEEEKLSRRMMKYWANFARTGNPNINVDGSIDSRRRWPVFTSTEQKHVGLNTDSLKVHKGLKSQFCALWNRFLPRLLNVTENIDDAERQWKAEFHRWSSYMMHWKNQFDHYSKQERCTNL
Procedure: Acetylcholinesterase activity was assessed combining 75 μL of the extract solutions, prepared in 50 mM Tris-HCl buffer (pH 8.0), plus 0.1 % (w/v) albumin, with 25 μL of 15 mM ATCI and 125 μL of 3 mM DTNB. The formation of 5-thio-2-nitrobenzoate was monitored at 405 nm ([Trigueros, Oliveira, et al., 2024]).

[4] = ref Yuting et al., 1990; cited from earlier work
[5] = system: Epidermophyton floccosum (FF9); test: Antifungal activity, Epidermophyton floccosum; format: cell-based
Procedure: as §1, §2

[6] = system: Candida albicans (ATCC 10231); test: Antifungal activity, Candida albicans; format: cell-based
Procedure: as §1, §2

[7] = set-up: method as in Li et al., 2011; details: ref Li et al., 2011; cited from earlier work; remark: listed apart in the source
[8] = Superoxide anion radical scavenging activity; format: biochemical
Procedure: The ability of the onion skin extracts to scavenge the superoxide anion (O2^●-) radical was determined according to [Ferreres et al. (2021)]. Equal volumes (50 μL) of the extract solutions, diluted in 19 mM phosphate buffer (pH 7.4), and 0.166 mM NADH, and three volumes of 0.043 mM nitrotetrazolium blue chloride were combined. The reaction was initiated by adding 50 μL of 2.7 μM phenazine methosulfate, and absorbance was recorded at 560 nm. A control was prepared substituting sample with buffer.

[9] = system: Nannizzia gypsea (formerly Microsporum gypseum-FF3); test: Antifungal activity, Nannizzia gypsea; format: cell-based
Procedure: as §1, §2

[10] = set-up: method as in Li et al., 2011; details: ref Li et al., 2011; cited from earlier work; remark: listed apart in the source
[11] = system: Candida krusei (ATCC 6258); test: Antifungal activity, Candida krusei; format: cell-based; details: Pichia kudriavzevii, ATCC6258
Procedure: as §1, §2

[12] = system: Trichophyton rubrum (FF5); test: Antifungal activity, Trichophyton rubrum; format: cell-based
Procedure: as §1, §2

5-LOX (lipoxygenase) = target: T2, 5-LOX (lipoxygenase) (Glycine max, UniProt P08170); test: Lipoxygenase (5-LOX) activity assay; format: biochemical, Glycine max (soybean)
T2 construct: purchased Sigma-Aldrich (St. Louis, MO, USA)
T2 sequence (P08170 whole entry): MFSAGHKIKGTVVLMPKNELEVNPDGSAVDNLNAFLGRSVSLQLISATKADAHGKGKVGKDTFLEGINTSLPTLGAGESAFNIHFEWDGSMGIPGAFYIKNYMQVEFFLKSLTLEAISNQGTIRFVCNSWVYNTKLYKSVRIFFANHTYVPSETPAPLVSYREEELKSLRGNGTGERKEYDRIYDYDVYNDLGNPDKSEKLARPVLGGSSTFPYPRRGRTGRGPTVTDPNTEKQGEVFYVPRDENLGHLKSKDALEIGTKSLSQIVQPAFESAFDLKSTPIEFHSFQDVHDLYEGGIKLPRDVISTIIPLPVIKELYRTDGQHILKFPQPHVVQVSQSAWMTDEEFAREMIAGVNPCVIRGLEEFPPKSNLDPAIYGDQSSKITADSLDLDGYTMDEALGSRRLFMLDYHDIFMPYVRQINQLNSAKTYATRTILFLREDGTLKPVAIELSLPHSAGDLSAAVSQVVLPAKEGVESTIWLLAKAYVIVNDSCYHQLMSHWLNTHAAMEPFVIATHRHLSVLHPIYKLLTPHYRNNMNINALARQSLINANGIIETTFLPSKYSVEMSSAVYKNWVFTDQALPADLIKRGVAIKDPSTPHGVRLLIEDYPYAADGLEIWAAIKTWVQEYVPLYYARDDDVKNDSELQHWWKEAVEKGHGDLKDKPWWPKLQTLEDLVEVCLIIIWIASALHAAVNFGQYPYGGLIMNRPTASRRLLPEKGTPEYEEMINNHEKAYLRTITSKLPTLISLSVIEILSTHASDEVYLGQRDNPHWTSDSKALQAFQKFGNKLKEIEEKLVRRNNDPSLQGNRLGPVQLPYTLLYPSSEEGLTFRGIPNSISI
Procedure: The ability of the extracts and pure compounds to inhibit 5-LOX activity was assessed by measuring their capacity to prevent linoleic oxidation. In short, 200 μL of the extract solutions, diluted in 100 mM phosphate buffer (pH 9.0), was mixed with 20 μL of the enzyme solution and 20 μL of 4.18 mM linoleic acid prepared in ethanol, and the absorbance at 234 nm was measured. A control was prepared with buffer instead of sample ([Trigueros, Oliveira, et al., 2024]).

xanthine oxidase = target: T3, xanthine oxidase (Bos taurus, UniProt P80457); test: Xanthine oxidase inhibition assay; format: biochemical
T3 construct: purchased Sigma-Aldrich (St. Louis, MO, USA); host or cells: bovine milk
T3 sequence (P80457 whole entry): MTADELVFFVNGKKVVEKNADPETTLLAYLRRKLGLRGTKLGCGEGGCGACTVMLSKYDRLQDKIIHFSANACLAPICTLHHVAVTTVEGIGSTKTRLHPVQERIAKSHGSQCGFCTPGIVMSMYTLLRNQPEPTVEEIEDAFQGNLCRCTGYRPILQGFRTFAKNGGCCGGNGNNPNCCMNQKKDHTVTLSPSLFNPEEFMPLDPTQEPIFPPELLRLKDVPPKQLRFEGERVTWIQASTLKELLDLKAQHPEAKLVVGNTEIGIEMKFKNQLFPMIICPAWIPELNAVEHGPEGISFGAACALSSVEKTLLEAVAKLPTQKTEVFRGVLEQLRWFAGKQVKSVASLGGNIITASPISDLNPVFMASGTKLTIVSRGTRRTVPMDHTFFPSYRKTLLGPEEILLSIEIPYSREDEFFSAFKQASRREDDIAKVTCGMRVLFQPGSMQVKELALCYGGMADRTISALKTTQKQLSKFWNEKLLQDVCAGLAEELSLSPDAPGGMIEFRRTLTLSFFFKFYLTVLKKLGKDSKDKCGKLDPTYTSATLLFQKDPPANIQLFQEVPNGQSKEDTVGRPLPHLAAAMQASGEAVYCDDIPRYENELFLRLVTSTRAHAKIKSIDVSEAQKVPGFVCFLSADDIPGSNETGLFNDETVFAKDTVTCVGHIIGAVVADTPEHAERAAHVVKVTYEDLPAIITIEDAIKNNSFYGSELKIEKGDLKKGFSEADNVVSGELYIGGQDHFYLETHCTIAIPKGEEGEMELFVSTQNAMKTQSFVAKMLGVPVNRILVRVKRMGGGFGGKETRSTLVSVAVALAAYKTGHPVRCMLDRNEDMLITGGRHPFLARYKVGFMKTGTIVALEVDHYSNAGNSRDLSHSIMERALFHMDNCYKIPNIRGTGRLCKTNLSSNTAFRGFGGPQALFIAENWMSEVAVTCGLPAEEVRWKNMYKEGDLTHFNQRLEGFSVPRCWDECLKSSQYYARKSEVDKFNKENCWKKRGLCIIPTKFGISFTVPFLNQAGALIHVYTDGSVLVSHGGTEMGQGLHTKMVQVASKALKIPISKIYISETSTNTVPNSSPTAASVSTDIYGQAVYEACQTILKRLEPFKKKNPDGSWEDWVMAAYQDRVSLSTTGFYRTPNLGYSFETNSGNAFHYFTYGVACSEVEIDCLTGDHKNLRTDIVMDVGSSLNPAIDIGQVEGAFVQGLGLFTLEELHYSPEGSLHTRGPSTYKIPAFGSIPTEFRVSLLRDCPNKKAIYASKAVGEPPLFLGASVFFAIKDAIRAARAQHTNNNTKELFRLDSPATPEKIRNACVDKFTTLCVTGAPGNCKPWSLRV
Procedure: Xanthine oxidase activity was determined using a previously established method by monitoring the conversion of xanthine to uric acid ([Trigueros, Oliveira, et al., 2024]). 200 μL of the extract solutions, diluted in 5 mM phosphate buffer (pH 7.4), was mixed with 10 μL of xanthine oxidase solution, incubated for 5 min at 37 °C, followed by the addition of 40 μL of 1.25 mM xanthine solution, and absorbance was measured at 295 nm. A control assay was prepared with buffer.

α-glucosidase = target: T4, α-glucosidase (Saccharomyces cerevisiae, UniProt P53341); test: α-Glucosidase activity assay (pure enzyme); format: biochemical
T4 construct: purchased Sigma-Aldrich (St. Louis, MO, USA)
T4 sequence (P53341 whole entry): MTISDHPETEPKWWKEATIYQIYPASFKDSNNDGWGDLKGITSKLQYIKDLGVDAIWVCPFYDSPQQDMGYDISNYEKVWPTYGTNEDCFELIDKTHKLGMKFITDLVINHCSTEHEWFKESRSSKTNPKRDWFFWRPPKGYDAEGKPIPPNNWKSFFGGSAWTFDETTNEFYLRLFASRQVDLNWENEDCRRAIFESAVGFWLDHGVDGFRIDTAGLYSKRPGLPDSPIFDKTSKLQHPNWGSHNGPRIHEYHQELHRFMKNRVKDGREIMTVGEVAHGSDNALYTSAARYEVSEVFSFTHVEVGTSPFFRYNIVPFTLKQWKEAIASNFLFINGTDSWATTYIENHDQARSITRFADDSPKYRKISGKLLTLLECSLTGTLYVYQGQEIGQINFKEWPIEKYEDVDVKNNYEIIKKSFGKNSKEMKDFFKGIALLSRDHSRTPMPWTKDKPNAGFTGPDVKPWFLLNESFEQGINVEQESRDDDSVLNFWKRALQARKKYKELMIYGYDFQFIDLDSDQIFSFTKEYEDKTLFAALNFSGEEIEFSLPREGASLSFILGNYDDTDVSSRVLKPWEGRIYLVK
Procedure: Enzymes for in vitro enzymatic assays were aldose-reductase (Homo sapiens, human) from Prozomix (UK), α-amylase (porcine pancreas), α-glucosidase (Saccharomyces cerevisiae), acetylcholinesterase from Electrophorus electricus, lipoxygenase from Glycine max (soybean), tyrosinase from mushroom, xanthine oxidase from bovine milk, all provided by Sigma-Aldrich (St. Louis, MO, USA).
α-Glucosidase activity was evaluated incubating 180 μL of a mixture of the extract solutions, prepared in 10 mM potassium phosphate buffer (pH 7.0), and 20 μL of the enzyme solution at 37 °C for 2 min. Absorbance at 405 nm was measured after adding 100 μL of 2.5 mM 4-nitrophenyl-α-D-glucopyranoside, and after 10 min incubation.

[13] = system: Aspergillus fumigatus (ATCC 204305); test: Antifungal activity, Aspergillus fumigatus; format: cell-based
Procedure: as §1, §2

[14] = system: NO production in LPS-induced BV-2 cells; set-up: method as in Sun et al., 2015; details: ref Sun et al., 2015; cited from earlier work
[15] = 100 % growth inhibition, read-out: MIC

## O=C(O)c1ccc(O)c(O)c1 [Protocatechuic acid]
[1]; CECT1078
  MFC: 2000 µg/mL (≈ 13 mM)
[1]; CECT1078, read-out: MIC, ≥ 95 % growth inhibition
  MIC: 1000 µg/mL (≈ 6.49 mM)
[2]
  IC25, ●NO scavenging: 237 ± 16 µg/mL (≈ 1.54 mM)
[2]; at the maximum tested concentration (1.33 mg/mL)
  ●NO scavenging activity: below 40%
[3]
  IC50, hydroxyl radicals: 74 µg/mL (≈ 0.48 mM)
acetylcholinesterase
  IC25, AChE: 1809 ± 31 µg/mL (≈ 11.7 mM)
[4]
  IC50, O2●- scavenging: 310 µg/mL (≈ 2.01 mM)
[5]
  MFC: 2000 µg/mL (≈ 13 mM)
  MIC: 500 µg/mL (≈ 3.24 mM)
[6]; ATCC10231
  MFC: > 4000 µg/mL
  MIC: > 4000 µg/mL
[7]
  IC50, ABTS: 0.89 µg/mL (≈ 0.00577 mM)
[8]
  IC50, O2●- scavenging: 252 ± 8 µg/mL (≈ 1.64 mM)
[9]
  MFC: > 4000 µg/mL
  MIC: > 4000 µg/mL
[10]
  IC50, DPPH: 1.88 µg/mL (≈ 0.0122 mM)
[11]
  MFC: > 4000 µg/mL
  MIC: > 4000 µg/mL
[12]
  MFC: 2000 µg/mL (≈ 13 mM)
  MIC: 2000 µg/mL (≈ 13 mM)
[12]; read-out: MIC, 90 % growth inhibition
  MIC: 1000 µg/mL (≈ 6.49 mM)
5-LOX (lipoxygenase)
  IC50: 247 µM
Xanthine oxidase
  IC50: 908 µM
α-glucosidase
  IC50: 2760 µM
[13]; ATCC204305
  MFC: > 4000 µg/mL
  MIC: > 4000 µg/mL

## O=c1c(O)c(-c2ccc(O)c(O)c2)oc2cc(O)cc(O)c12 [Quercetin]
[1]; CECT1078, 100 % growth inhibition, read-out: MIC
  MIC: 1000 µg/mL (≈ 3.31 mM)
[1]; CECT1078, read-out: MFC
  MFC: 2000 µg/mL (≈ 6.62 mM)
[1]; CECT1078, read-out: MIC, 90 % growth inhibition, 90 %
  MIC: 750 µg/mL (≈ 2.48 mM)
[2]
  IC50, ●NO scavenging: 49 ± 2 µg/mL (≈ 0.162 mM)
[5]; [15]
  MIC: 500 µg/mL (≈ 1.65 mM)
[5]; read-out: MFC
  MFC: 1000 µg/mL (≈ 3.31 mM)
[6]; ATCC10231, 100 % growth inhibition, read-out: MIC
  MIC: > 4000 µg/mL
[6]; ATCC10231, read-out: MFC
  MFC: > 4000 µg/mL
[8]
  IC50, O2●- scavenging: 22.4 ± 1.1 µg/mL (≈ 0.0741 mM)
[9]; [15]
  MIC: > 4000 µg/mL
[9]; read-out: MFC
  MFC: > 4000 µg/mL
[14]
  concentrations effectively reducing NO production: above 5 μM
[11]; Candida krusei, 100 % growth inhibition, read-out: MIC
  MIC: ≥ 4000 µg/mL
[11]; Candida krusei, read-out: MFC
  MFC: > 4000 µg/mL
[12]; [15]
  MIC: 1000 µg/mL (≈ 3.31 mM)
[12]; read-out: MFC
  MFC: 1000 µg/mL (≈ 3.31 mM)
[13]; ATCC204305, 100 % growth inhibition, read-out: MIC
  MIC: > 4000 µg/mL
[13]; ATCC204305, read-out: MFC
  MFC: > 4000 µg/mL

Reference: PMC12320693, “Non-edible onion skin waste as a source of bioactive agents for functional foods development: Chemical composition and multifunctional bioactivity” (Food Chemistry: X, 2025)
